Reference: PubChem BioAssay AID1845217 (Molecular Pharmacology Branch, DTP, NCI, 2023)

Tested on: VA-ES-BJ tumor spheroid viability
Test: Anticancer human tumor VA-ES-BJ cell line growth inhibition;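 further: spheroids exposed to compounds for seven days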;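 on viability, T/C: percent of DMSO vehicle control viability so 100% = untreated growth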
Settings: spheroids with HUVEC and MSC; for viability, T/C: stronger effect = lower value
Summary of the method: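 Single agents and combinations were tested on spheroids built from tumor cells plus HUVEC and hMSC, at half-log dilutions starting at or near clinical Cmax, else 10 microM; final DMSO 0.25% (v/v).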

[1] = curve of first compound, second compound 30 pM
[2] = curve of first compound, second compound 94.9 pM
[3] = curve of first compound, second compound 0.0003 µM
[4] = curve of first compound, second compound 0.000949 µM
[5] = curve of first compound, second compound 0.003 µM
[6] = second compound 30 pM, first compound 0.0316 µM
[7] = second compound 30 pM, first compound 0.1 µM
[8] = second compound 30 pM, first compound 0.316 µM
[9] = second compound 30 pM, first compound 1 µM
[10] = second compound 30 pM, first compound 3.16 µM
[11] = second compound 30 pM, first compound 10 µM
[12] = second compound 94.9 pM, first compound 0.0316 µM
[13] = second compound 94.9 pM, first compound 0.1 µM
[14] = second compound 94.9 pM, first compound 0.316 µM
[15] = second compound 94.9 pM, first compound 1 µM
[16] = second compound 94.9 pM, first compound 3.16 µM
[17] = second compound 94.9 pM, first compound 10 µM
[18] = second compound 0.0003 µM, first compound 0.0316 µM
[19] = second compound 0.0003 µM, first compound 0.1 µM
[20] = second compound 0.0003 µM, first compound 0.316 µM
[21] = second compound 0.0003 µM, first compound 1 µM
[22] = second compound 0.0003 µM, first compound 3.16 µM
[23] = second compound 0.0003 µM, first compound 10 µM
[24] = second compound 0.000949 µM, first compound 0.0316 µM
[25] = second compound 0.000949 µM, first compound 0.1 µM
[26] = second compound 0.000949 µM, first compound 0.316 µM
[27] = second compound 0.000949 µM, first compound 1 µM
[28] = second compound 0.000949 µM, first compound 3.16 µM
[29] = second compound 0.000949 µM, first compound 10 µM
[30] = second compound 0.003 µM, first compound 0.0316 µM
[31] = second compound 0.003 µM, first compound 0.1 µM
[32] = second compound 0.003 µM, first compound 0.316 µM
[33] = second compound 0.003 µM, first compound 1 µM
[34] = second compound 0.003 µM, first compound 3.16 µM
[35] = second compound 0.003 µM, first compound 10 µM

Cn1nnc2c(C(N)=O)ncn2c1=O
viability, T/C (compound 1 µM): 104% [middle of 10 runs] | viability, T/C (compound 3.16 µM): 103% [middle of 10 runs] | viability, T/C (compound 10 µM): 107% [middle of 10 runs] | viability, T/C (compound 100 µM): 104% [middle of 10 runs] | IC50 (compound alone, run of 12/02/2019): > 100 µM

[2H]c1nc(C)nc([2H])c1-c1cc(NC[C@@H](C)c2cccc3c(C(=O)NC)ccnc23)ncn1 + COc1cc2c(cc1O)CCNC21CSC2c3c(OC(C)=O)c(C)c4c(c3C(COC1=O)N1C(O)C3Cc5cc(C)c(OC)c(O)c5C(C21)N3C)OCO4
IC50 [1]: > 10 µM | IC50 [2]: > 10 µM | IC50 [3]: < 0.0316 µM | IC50 [4]: < 0.0316 µM | IC50 [5]: < 0.0316 µM | viability, T/C [6]: 75.6% | viability, T/C [7]: 78.4% | viability, T/C [8]: 81.4% | viability, T/C [9]: 81.9% | viability, T/C [10]: 85.2% | viability, T/C [11]: 87.5% | viability, T/C [12]: 72.9% | viability, T/C [13]: 74% | viability, T/C [14]: 83.1% | viability, T/C [15]: 81% | viability, T/C [16]: 82.6% | viability, T/C [17]: 76.8% | viability, T/C [18]: 46.8% | viability, T/C [19]: 40.9% | viability, T/C [20]: 43.9% | viability, T/C [21]: 42.1% | viability, T/C [22]: 36% | viability, T/C [23]: 38.4% | viability, T/C [24]: 3.46% | viability, T/C [25]: 1.96% | viability, T/C [26]: 3.4% | viability, T/C [27]: 2.92% | viability, T/C [28]: 2.41% | viability, T/C [29]: 1.53% | viability, T/C [30]: 0.81% | viability, T/C [31]: 0.92% | viability, T/C [32]: 0.98% | viability, T/C [33]: 1.25% | viability, T/C [34]: 1.28% | viability, T/C [35]: 2.09%

CC(C)n1c(=O)n(C)c2cnc3cc(F)c(-c4ccc(OCCCN5CCCCC5)nc4)cc3c21 + Cn1nnc2c(C(N)=O)ncn2c1=O
IC50 (curve of first compound, second compound 1 µM): > 10 µM | IC50 (curve of first compound, second compound 3.16 µM): > 10 µM | IC50 (curve of first compound, second compound 10 µM): > 10 µM | IC50 (curve of first compound, second compound 31.6 µM): > 10 µM | IC50 (curve of first compound, second compound 100 µM): > 10 µM | viability, T/C (second compound 1 µM, first compound 0.0316 µM): 93% | viability, T/C (second compound 1 µM, first compound 0.1 µM): 92.2% | viability, T/C (second compound 1 µM, first compound 0.316 µM): 93% | viability, T/C (second compound 1 µM, first compound 1 µM): 105% | viability, T/C (second compound 1 µM, first compound 3.16 µM): 110% | viability, T/C (second compound 1 µM, first compound 10 µM): 77.8% | viability, T/C (second compound 3.16 µM, first compound 0.0316 µM): 94% | viability, T/C (second compound 3.16 µM, first compound 0.1 µM): 86.3% | viability, T/C (second compound 3.16 µM, first compound 0.316 µM): 93.3% | viability, T/C (second compound 3.16 µM, first compound 1 µM): 110% | viability, T/C (second compound 3.16 µM, first compound 3.16 µM): 111% | viability, T/C (second compound 3.16 µM, first compound 10 µM): 55.6% | viability, T/C (second compound 10 µM, first compound 0.0316 µM): 92.2% | viability, T/C (second compound 10 µM, first compound 0.1 µM): 94.3% | viability, T/C (second compound 10 µM, first compound 0.316 µM): 88% | viability, T/C (second compound 10 µM, first compound 1 µM): 103% | viability, T/C (second compound 10 µM, first compound 3.16 µM): 111% | viability, T/C (second compound 10 µM, first compound 10 µM): 62.1% | viability, T/C (second compound 31.6 µM, first compound 0.0316 µM): 80.6% | viability, T/C (second compound 31.6 µM, first compound 0.1 µM): 100% | viability, T/C (second compound 31.6 µM, first compound 0.316 µM): 103% | viability, T/C (second compound 31.6 µM, first compound 1 µM): 103% | viability, T/C (second compound 31.6 µM, first compound 3.16 µM): 113% | viability, T/C (second compound 31.6 µM, first compound 10 µM): 53.3% | viability, T/C (second compound 100 µM, first compound 0.0316 µM): 103% | viability, T/C (second compound 100 µM, first compound 0.1 µM): 102% | viability, T/C (second compound 100 µM, first compound 0.316 µM): 106% | viability, T/C (second compound 100 µM, first compound 1 µM): 116% | viability, T/C (second compound 100 µM, first compound 3.16 µM): 109% | viability, T/C (second compound 100 µM, first compound 10 µM): 101%

CC1COCCN1c1cc(-c2ccnn2C)c2ccnc(-c3ccn[nH]3)c2n1 (stereo not given) + COc1cc2c(cc1O)CCNC21CSC2c3c(OC(C)=O)c(C)c4c(c3C(COC1=O)N1C(O)C3Cc5cc(C)c(OC)c(O)c5C(C21)N3C)OCO4
IC50 [1]: < 0.0316 µM | IC50 [2]: < 0.0316 µM | IC50 [3]: < 0.0316 µM | IC50 [4]: < 0.0316 µM | IC50 [5]: < 0.0316 µM | viability, T/C [6]: 38% | viability, T/C [7]: 19.5% | viability, T/C [8]: 8.68% | viability, T/C [9]: 5.69% | viability, T/C [10]: 4.98% | viability, T/C [11]: 4.49% | viability, T/C [12]: 26% | viability, T/C [13]: 21.3% | viability, T/C [14]: 8.87% | viability, T/C [15]: 4.99% | viability, T/C [16]: 5.01% | viability, T/C [17]: 4.7% | viability, T/C [18]: 16.9% | viability, T/C [19]: 12% | viability, T/C [20]: 8.21% | viability, T/C [21]: 5.23% | viability, T/C [22]: 5.32% | viability, T/C [23]: 5.04% | viability, T/C [24]: 2.61% | viability, T/C [25]: 2.73% | viability, T/C [26]: 2.01% | viability, T/C [27]: 1.53% | viability, T/C [28]: 0.5% | viability, T/C [29]: 0.13% | viability, T/C [30]: 1.26% | viability, T/C [31]: 1.04% | viability, T/C [32]: 0.77% | viability, T/C [33]: 1% | viability, T/C [34]: 0.35% | viability, T/C [35]: 0.56%
